Test results reported in ChEMBL document CHEMBL1140103, “Synthesis and evaluation of [N-methyl-11C]N-desmethyl-loperamide as a new and improved PET radiotracer for imaging P-gp function” (J Med Chem, 2008).

Legend:
[1] = biological target: T1, Alpha-1A adrenergic receptor (Homo sapiens, UniProt P35348); test: Displacement of [125I]HEAT from adrenergic alpha1A receptor
T1 sequence (P35348 whole entry): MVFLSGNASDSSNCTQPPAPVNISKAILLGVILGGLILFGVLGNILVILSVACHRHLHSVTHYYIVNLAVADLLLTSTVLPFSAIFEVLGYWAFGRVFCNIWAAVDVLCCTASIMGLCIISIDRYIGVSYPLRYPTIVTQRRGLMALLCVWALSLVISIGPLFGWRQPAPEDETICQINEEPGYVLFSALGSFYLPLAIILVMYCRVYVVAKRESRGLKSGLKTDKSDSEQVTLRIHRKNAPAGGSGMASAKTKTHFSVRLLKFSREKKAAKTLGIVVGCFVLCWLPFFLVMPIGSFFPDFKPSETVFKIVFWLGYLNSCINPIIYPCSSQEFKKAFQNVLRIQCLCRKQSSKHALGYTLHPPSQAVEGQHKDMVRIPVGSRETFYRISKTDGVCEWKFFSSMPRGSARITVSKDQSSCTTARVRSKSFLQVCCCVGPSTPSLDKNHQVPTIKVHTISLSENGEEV

[2] = biological target: T2, Alpha-2A adrenergic receptor (Homo sapiens, UniProt P08913); test: Displacement of [125I]HEAT from adrenergic alpha2A receptor
T2 sequence (P08913 whole entry): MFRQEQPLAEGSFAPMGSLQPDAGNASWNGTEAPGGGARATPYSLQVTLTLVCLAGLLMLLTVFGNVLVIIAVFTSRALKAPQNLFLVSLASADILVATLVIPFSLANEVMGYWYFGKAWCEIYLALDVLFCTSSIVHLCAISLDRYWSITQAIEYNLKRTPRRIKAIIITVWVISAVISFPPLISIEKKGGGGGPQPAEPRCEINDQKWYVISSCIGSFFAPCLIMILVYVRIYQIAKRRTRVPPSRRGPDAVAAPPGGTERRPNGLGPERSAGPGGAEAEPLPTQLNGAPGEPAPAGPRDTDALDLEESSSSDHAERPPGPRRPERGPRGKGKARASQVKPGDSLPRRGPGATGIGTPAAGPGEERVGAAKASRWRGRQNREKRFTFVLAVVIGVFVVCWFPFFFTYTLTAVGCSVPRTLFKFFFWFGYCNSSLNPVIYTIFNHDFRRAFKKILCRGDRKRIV

[3] = biological target: T3, Alpha-2C adrenergic receptor (Homo sapiens, UniProt P18825); test: Displacement of [125I]HEAT from adrenergic Alpha-2C receptor
T3 sequence (P18825 whole entry): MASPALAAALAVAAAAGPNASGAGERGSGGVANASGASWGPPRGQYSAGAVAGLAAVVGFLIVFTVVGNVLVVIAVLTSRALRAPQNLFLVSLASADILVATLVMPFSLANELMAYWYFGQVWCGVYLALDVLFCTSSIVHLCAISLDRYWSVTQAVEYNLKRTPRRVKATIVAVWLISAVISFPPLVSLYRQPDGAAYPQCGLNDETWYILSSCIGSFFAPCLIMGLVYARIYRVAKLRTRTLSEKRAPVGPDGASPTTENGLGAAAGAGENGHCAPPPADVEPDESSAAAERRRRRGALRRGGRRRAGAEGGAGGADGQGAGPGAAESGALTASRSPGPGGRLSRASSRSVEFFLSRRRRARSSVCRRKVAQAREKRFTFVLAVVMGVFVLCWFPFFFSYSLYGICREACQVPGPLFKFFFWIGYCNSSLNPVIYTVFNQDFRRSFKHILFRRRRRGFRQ

[4] = biological target: T4, Alpha-2B adrenergic receptor (Homo sapiens, UniProt P18089); test: Displacement of [125I]HEAT from adrenergic alpha2B receptor
T4 sequence (P18089 whole entry): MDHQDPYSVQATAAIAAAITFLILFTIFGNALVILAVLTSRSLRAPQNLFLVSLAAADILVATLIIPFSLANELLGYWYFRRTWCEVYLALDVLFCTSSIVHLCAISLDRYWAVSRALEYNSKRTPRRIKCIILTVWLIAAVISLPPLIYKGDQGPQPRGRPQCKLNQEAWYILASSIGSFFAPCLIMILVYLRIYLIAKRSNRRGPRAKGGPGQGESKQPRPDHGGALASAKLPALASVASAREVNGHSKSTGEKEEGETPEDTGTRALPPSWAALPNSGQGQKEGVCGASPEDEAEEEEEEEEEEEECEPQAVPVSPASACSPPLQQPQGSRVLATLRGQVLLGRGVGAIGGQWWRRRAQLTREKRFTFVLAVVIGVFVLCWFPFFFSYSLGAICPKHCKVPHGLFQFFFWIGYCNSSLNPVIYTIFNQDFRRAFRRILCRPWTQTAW

[5] = biological target: T5, D(4) dopamine receptor (Homo sapiens, UniProt P21917); test: Displacement of [3H]N-methylspiperone from dopamine D4 receptor
T5 sequence (P21917 whole entry): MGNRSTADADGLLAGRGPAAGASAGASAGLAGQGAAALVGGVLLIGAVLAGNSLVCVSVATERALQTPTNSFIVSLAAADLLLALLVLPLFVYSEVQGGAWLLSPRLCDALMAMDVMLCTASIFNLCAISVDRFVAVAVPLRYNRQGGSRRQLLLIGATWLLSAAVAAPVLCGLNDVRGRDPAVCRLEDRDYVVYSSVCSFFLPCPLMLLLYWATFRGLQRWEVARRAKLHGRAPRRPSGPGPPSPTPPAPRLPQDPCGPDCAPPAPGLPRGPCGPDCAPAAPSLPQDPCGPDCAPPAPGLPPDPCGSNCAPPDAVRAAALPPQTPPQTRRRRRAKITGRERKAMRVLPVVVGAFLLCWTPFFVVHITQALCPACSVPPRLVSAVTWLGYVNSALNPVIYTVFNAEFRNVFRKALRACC

[6] = biological target: Histamine H1 receptor (Homo sapiens, UniProt P35367); test: Displacement of [3H]pyrilamine from human histamine H1 receptor
Sequence of Histamine H1 receptor (P35367 whole entry): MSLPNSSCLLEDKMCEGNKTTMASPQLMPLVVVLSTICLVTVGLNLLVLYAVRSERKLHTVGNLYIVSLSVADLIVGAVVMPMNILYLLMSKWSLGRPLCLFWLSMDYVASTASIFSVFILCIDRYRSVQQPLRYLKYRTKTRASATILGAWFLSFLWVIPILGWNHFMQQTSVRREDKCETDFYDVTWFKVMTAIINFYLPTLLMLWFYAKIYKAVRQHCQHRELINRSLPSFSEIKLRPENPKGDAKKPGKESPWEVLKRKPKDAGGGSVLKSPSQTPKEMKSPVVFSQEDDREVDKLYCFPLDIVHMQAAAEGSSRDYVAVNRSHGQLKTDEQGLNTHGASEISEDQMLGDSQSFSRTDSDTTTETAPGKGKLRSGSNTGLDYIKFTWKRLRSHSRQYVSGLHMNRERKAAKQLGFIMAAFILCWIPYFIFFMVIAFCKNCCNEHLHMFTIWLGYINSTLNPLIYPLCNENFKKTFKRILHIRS

[7] = biological target: Histamine H2 receptor (Homo sapiens, UniProt P25021); test: Displacement of [3H]tiotidine from human histamine H2 receptor
Sequence of Histamine H2 receptor (P25021 whole entry): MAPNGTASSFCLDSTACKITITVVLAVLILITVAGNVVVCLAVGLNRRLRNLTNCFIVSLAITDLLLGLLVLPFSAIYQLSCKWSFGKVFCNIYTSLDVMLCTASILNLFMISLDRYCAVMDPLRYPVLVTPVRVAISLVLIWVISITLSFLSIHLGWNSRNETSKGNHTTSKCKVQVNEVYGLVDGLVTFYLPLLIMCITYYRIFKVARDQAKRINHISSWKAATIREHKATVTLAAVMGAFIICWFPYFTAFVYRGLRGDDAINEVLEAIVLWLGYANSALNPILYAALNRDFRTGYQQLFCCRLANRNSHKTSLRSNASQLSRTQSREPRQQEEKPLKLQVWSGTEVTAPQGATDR

[8] = biological target: Histamine H3 receptor (Homo sapiens, UniProt Q9Y5N1); test: Displacement of [3H]alpha-methylhistamine from human histamine H3 receptor
Sequence of Histamine H3 receptor (Q9Y5N1 whole entry): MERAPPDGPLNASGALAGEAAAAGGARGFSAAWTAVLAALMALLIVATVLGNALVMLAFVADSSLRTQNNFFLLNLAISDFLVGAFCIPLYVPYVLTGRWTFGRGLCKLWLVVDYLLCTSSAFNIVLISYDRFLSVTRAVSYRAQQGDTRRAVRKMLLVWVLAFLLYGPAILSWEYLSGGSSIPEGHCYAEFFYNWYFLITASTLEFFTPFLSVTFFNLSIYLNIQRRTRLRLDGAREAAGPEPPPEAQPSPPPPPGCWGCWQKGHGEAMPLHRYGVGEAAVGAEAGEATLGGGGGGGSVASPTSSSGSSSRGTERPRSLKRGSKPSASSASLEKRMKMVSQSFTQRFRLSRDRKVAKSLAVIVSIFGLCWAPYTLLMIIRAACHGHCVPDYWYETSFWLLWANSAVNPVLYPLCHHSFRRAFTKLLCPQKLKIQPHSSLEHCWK

[9] = biological target: Mu-type opioid receptor (Homo sapiens, UniProt P35372); test: Displacement of [3H]DAMGO from mu opioid receptor
Sequence of Mu-type opioid receptor (P35372 whole entry): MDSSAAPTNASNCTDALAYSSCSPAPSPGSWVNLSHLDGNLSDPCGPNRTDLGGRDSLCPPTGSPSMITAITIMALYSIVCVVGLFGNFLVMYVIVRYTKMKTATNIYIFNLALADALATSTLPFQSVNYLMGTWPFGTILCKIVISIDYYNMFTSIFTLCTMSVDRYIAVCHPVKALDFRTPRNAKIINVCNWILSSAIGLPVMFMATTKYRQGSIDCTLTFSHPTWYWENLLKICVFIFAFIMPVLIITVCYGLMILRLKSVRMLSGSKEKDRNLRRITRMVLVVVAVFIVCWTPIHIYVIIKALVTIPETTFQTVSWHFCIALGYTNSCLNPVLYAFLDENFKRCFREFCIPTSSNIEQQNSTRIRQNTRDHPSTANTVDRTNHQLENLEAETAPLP

[10] = biological target: Sigma non-opioid intracellular receptor 1 (Rattus norvegicus, UniProt Q9R0C9); test: Displacement of [3H]Pentazocine from rat sigma 1 receptor in rat PC12 cells; assay type: cell-based, PC-12
Sequence of Sigma non-opioid intracellular receptor 1 (Q9R0C9 whole entry): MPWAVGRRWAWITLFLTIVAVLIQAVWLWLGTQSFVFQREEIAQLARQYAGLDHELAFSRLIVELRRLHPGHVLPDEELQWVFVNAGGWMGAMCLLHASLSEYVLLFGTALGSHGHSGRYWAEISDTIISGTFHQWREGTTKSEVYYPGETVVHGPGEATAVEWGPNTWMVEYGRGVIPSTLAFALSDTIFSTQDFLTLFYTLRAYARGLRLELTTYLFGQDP

[11] = Displacement of [3H]DTG from rat sigma 2 receptor in rat PC12 cells; assay type: cell-based; conditions: pc-12
[12] = biological target: Sodium-dependent serotonin transporter (Homo sapiens, UniProt P31645); test: Displacement of [3H]citalopram from human SERT
Sequence of Sodium-dependent serotonin transporter (P31645 whole entry): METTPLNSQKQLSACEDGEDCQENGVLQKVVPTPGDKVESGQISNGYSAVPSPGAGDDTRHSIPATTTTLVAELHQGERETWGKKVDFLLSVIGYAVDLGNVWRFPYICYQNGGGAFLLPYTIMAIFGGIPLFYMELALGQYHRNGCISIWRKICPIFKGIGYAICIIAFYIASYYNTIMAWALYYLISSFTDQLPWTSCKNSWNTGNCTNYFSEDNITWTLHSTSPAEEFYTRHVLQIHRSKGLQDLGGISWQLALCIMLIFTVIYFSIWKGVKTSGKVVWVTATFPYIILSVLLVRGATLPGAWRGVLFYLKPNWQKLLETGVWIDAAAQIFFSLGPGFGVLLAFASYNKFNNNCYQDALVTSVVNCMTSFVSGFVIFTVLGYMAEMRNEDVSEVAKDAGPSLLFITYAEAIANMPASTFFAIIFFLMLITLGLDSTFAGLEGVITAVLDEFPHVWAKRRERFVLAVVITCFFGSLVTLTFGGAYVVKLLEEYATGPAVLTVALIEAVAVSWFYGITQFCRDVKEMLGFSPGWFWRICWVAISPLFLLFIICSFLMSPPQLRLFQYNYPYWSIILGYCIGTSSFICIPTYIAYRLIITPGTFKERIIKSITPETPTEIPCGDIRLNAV

[13] = Dissociation constant, pKa of the compound; assay type: physicochemical
[14] = Lipophilicity, log D of the compound; assay type: physicochemical; conditions: octanol/water

Row | Compound | Ki [1] [nM] | Ki [2] [nM] | Ki [3] [nM] | Ki [4] [nM] | Ki [5] [nM] | Ki [6] [nM] | Ki [7] [nM] | Ki [8] [nM] | Ki [9] [nM] | Ki [10] [nM] | Ki [11] [nM] | Ki [12] [nM] | pKa [13] | logD [14] | pKa ([13]; read-out: pKa)
1 | CNC(=O)C(CCN1CCC(O)(c2ccc(Cl)cc2)CC1)(c1ccccc1)c1ccccc1 | 9.9 | 1 | 2.4 | 7 | 1.1 | 4.2 | 1.7 | 9.3 | 0.6 | 0.8 | 1.9 | 6.2 | 7.2 | – | –
2 | [11CH3]NC(=O)C(CCN1CCC(O)(c2ccc(Cl)cc2)CC1)(c1ccccc1)c1ccccc1 | – | – | – | – | – | – | – | – | – | – | – | – | – | 2.6 | 7.96
